The values below are quoted from earlier work in patent US20170020837A1, “FUMARATE COMPOUNDS, PHARMACEUTICAL COMPOSITIONS THEREOF, AND METHODS OF USE” (priority 2015, published 2017).

Turning to `COC(=O)/C=C/C(=O)OC` [DMF, dimethylfumarate], the aqueous solubility entry was “poor”.
